What all share (assay type): cell-based
In assay [1] the target is T1, OX2R Q134A (Homo sapiens, UniProt O43614, Q134A).
T1 sequence (O43614 1-444 Q134A): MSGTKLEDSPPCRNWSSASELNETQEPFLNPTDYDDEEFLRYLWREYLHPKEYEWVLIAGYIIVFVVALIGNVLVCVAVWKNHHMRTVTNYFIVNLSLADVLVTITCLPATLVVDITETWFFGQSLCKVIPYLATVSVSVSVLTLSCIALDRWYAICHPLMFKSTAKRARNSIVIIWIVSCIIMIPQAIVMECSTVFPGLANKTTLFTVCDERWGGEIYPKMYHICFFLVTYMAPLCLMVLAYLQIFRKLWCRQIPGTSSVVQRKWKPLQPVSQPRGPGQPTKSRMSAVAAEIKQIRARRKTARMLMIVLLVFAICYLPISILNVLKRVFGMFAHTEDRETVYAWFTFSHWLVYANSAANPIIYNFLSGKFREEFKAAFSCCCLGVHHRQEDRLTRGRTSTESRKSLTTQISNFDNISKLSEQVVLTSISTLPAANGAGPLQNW
The assay is described as follows: β-arrestin PathHunter assay, OX2R Q134A. More on the design: expressed in transfected cells; host or cells: CHO-K1 stably expressing EA β-arrestin2. To be noted: for EC50: β-arrestin recruitment. Here is the method:
(§1) β-Arrestin recruitment activity was measured by using the PathHunter system (DiscoveRX) according to the manufacturer’s instruction. Receptor constructs used were the full-length wild-type (or mutant) human OX2R sequences cloned into pCMV-ProLink (DiscoveRX). CHO-K1 cells stably expressing EA β-arrestin2 (DiscoveRX) were plated on 384 well white plates (Thermo Fisher) at 4000 cells/well in HamF12 (Wako Pure Chemical Industries) supplemented with 10% fetal bovine serum (Corning) and penicillin-streptomycin (Wako Pure Chemical Industries) and incubated overnight at 37 °C under 5% CO2. Cells were transfected with plasmids encoding wild type or each mutant ProLink-tagged human OX2R using FuGENE HD (Promega). […] Detection reagent was added and incubated for 1 h at room temperature. Luminescent signal was detected using an EnVision plate reader (PerkinElmer). β-arrestin assays on different constructs were performed in two or three independent experiments (each done in quadruplicate). Dose response curves (shown in Supplementary Fig. 8) were fitted to the three-parameter model ‘log(agonist) vs response’ in GraphPad Prism to determine pEC50 values.

The target in assay [2] is T2, OX2R V353A (Homo sapiens, UniProt O43614, V353A).
T2 construct: expressed in transfected cells; host or cells: CHO-K1 cells stably expressing EA β-arrestin2 (DiscoveRX), transiently transfected with pCMV-ProLink OX2R
Nature of the assay: β-arrestin PathHunter assay, OX2R V353A. To be noted: β-arrestin recruitment. As for the experimental part: as §1

Assay [3] has as its target T3, human OX1R wild-type (Homo sapiens, UniProt O43613).
T3 construct: FLAG; expressed in transfected cells; host or cells: HEK293
T3 sequence (O43613 1-425): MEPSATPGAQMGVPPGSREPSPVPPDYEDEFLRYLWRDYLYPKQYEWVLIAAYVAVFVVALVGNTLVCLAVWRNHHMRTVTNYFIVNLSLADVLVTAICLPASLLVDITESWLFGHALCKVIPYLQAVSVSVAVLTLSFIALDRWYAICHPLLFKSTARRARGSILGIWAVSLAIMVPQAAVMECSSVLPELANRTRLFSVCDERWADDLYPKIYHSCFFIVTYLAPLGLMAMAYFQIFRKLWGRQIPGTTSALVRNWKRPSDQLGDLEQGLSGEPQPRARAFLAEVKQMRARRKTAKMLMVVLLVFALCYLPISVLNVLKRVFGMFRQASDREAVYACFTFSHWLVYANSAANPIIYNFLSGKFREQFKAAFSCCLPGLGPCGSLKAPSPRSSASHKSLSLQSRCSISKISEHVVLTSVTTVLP
Nature of the assay: IP accumulation assay, OX1R WT. An excerpt: The IP assay was adapted from a prior precedent. HEK293 cells were maintained in DMEM-high glucose (Millipore Sigma) supplemented with 5% fetal bovine serum (Corning) and penicillin-streptomycin (Millipore Sigma). Receptor constructs used were the full-length wild-type (or mutant) human OX1R and OX2R sequences cloned into pCDNA3. To enhance the Emax in the IP assay, a plasmid encoding full-length human Gαq subunit[66] was co-transfected into HEK293 cells with plasmids encoding orexin receptor constructs using Lipofectamine 3000 (Thermo Fisher). 24 h after transfection, the cells were plated on poly-D-lysine coated (Millipore Sigma) tissue culture-treated 96 well white plates with clear bottoms (Perkin Elmer) at 30,000 cells per well in Inositol-free DMEM (MP Biomedicals) supplemented with 5% fetal bovine serum, 4 mM L-glutamine (Millipore Sigma), penicillin-streptomycin, and about 5 uCi (5 ul) per ml myo-[2-3H] inositol (Perkin Elmer). The following day, the media was replaced with agonists that were diluted in HBSS (Millipore Sigma) containing 10 mM lithium chloride (Millipore Sigma) and incubated at 37 °C for 45 min. Then agonists were removed and cells were lysed on ice for 30 min with 10 mM formic acid (Millipore Sigma). 1.25 mg of poly-lysine coated YSI SPA beads (Perkin Elmer) was added to each well. The plates were mixed on an orbital shaker for 30 min. The plates were read on a MicroBeta scintillation counter (Perkin Elmer) the following day. IP accumulation assays on different constructs were performed in n ≥ 3 independent experiments (each done in duplicate), where n is shown in Supplementary Table 2.

Assay [4] deals with T4, OX2R Q187A (Homo sapiens, UniProt O43614, Q187A).
T4 construct: expressed in transfected cells; host or cells: CHO-K1 stably expressing EA β-arrestin2
Nature of the assay: β-arrestin PathHunter assay, OX2R Q187A. The following applies: β-arrestin recruitment. As for the experimental part: as §1

In assay [5] the target is T5, OX2R H350A (Homo sapiens, UniProt O43614, H350A).
T5 construct: expressed in transfected cells; host or cells: CHO-K1 stably expressing EA β-arrestin2
Nature of the assay: β-arrestin PathHunter assay, OX2R H350A. The following applies: β-arrestin recruitment. Here is the method: as §1

Assay [6] addresses T6, OX2R Y232A (Homo sapiens, UniProt O43614, Y232A).
T6 construct: expressed in transfected cells; host or cells: CHO-K1 stably expressing EA β-arrestin2
Nature of the assay: β-arrestin PathHunter assay, OX2R Y232A. To be noted: β-arrestin recruitment. Here is the method: as §1

The values below come from paper PMC9133036 (Nature Communications, 2022).

Molecules are shown by their SMILES. Where two headings read alike, the source gives them in different places.

T2 sequence (O43614 whole entry V353A): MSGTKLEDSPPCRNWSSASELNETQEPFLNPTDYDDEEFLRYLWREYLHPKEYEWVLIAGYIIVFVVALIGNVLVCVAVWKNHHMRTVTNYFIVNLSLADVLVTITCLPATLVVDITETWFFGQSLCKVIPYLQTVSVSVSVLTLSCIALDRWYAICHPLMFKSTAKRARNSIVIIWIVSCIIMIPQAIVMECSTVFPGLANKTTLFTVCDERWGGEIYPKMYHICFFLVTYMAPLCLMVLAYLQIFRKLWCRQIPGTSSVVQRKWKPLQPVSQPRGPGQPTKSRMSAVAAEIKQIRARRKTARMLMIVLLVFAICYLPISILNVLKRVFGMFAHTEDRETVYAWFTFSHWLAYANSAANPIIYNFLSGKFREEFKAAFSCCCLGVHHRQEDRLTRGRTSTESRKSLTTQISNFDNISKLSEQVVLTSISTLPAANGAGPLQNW
T2 sequence (P32121 whole entry partner): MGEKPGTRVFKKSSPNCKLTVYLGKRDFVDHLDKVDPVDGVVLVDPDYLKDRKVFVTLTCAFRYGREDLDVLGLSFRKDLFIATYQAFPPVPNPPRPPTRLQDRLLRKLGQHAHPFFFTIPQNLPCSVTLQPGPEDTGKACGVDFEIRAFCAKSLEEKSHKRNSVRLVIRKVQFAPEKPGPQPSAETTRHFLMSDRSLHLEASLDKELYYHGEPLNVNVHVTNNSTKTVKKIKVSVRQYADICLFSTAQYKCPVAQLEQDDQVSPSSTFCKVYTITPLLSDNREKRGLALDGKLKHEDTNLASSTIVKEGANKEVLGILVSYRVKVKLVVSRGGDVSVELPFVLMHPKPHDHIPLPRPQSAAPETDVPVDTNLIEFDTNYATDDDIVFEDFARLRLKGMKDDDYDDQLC
T4 sequence (O43614 whole entry Q187A): as the sequence (O43614 whole entry V353A) above, with Q187A, A353V counted along it
T5 sequence (O43614 whole entry H350A): as the sequence (O43614 whole entry V353A) above, with H350A, A353V counted along it
T6 sequence (O43614 whole entry Y232A): as the sequence (O43614 whole entry V353A) above, with Y232A, A353V counted along it

Consider `COC(=O)N1CCC[C@H](NS(C)(=O)=O)[C@@H]1CO[C@H]1CC[C@@H](c2ccccc2)CC1` [TAK-925, methyl (2R,3S)−3-[(methylsulfonyl)amino]−2-{[(cis−4-phenylcyclohexyl)oxy]methyl}piperidine-1-carboxylate], for which the “β-arrestin recruitment, change on mutation of Gln134” value in assay [1] was “large reductions”. In addition, the EC50 was more than 30.2 µM in assay [1] (pEC50 ± SEM, read-out: pEC50 (converted)); more than 30 µM in assay [1] (read-out: EC50); 5.5 µM in assay [2]; more than 100 µM in assay [3] (IP accumulation, non-saturating); 3.2 µM in assay [4]; 4.8 µM in assay [5]. The same molecule showed an EC50 in assay [6] of 8.5 µM. The molecule also registered an activation at 100 µM in assay [3] (0.75 h, TAK-925 conc (log, M) -4.00, normalized to S103T/A127T Emax) of 59%. The same molecule had an activation at 33.1 µM in assay [3] (0.75 h, TAK-925 conc (log, M) -4.48) of 40.3%. This molecule also had an activation at 11.2 µM in assay [3] (0.75 h, TAK-925 conc (log, M) -4.95) of 23.1%. This molecule had an activation at 3.72 µM in assay [3] (0.75 h, TAK-925 conc (log, M) -5.43) of 13.6%. Further, the activation at 1.23 µM in assay [3] (0.75 h, TAK-925 conc (log, M) -5.91) was 8.76%. In addition, in assay [3] (0.75 h, TAK-925 conc (log, M) -7.34), the activation at 0.0457 µM was 7.24%. In addition, the pEC50 entry in assay [3] (IP accumulation) was “not saturating”.
